Data set [1] has as its target T1, recombinant human 5-HT1D receptors (Homo sapiens, UniProt P28221).
T1 construct: expressed in transfected cells; host or cells: CHO-K1
In words: Ligand-receptor binding kinetics, 3H-5-carboxamidotryptamine competition, CHO-K1 membranes. The protocol:
(§1) Membrane preparations were derived from transfected CHO-K1 cells expressing recombinant human 5-HT1B and 5-HT1D receptors. […] After incubating for various lengths of time, membranes were washed by filtration and residual ^3H counts were determined on a microplate scintillation counter. On-rate constant (kon), off-rate constant (koff), and equilibrium dissociation constant (KD) were determined using nonlinear regression on Prism 4 (GraphPad), and Xlfit (IDBM) software. The following formulae were used in calculating additional parameters using previously derived^2 pharmacokinetic data in healthy human volunteers. Residence time for each ligand on 5-HT1B and 5-HT1D receptors=1/koff.

Data set [2] addresses T2, recombinant human 5-HT1B receptors (Homo sapiens, UniProt P28222).
T2 construct: expressed in transfected cells; host or cells: CHO-K1
Described as above. The protocol:
as §1

For the next data set, the system named is 5HT1B/1D. Conditions: cited from earlier work.
The next data set has as its system migraine. Conditions: cited from earlier work; for Pain freedom at 2 hours / Pain relief at 2 hours: lowest oral dose.
The next data set is described as follows: clinical. The protocol:
The final treatment administered was 3.8 mg on a 10 cm^2 patch using an applicator with 0.52 Joule of application energy in the intracutaneous microneedle system described herein. The products tested were:
This was a single-center, open-label, randomized five-way crossover study (Part 1) followed by a sequential study of two additional treatments (Parts 2 and 3). After obtaining informed consent and establishing eligibility, each subject received each of the seven study treatments once, followed by in-clinic monitoring and extensive blood sample collection for pharmacokinetic analysis. […] Plasma samples from the initial dosing days were sent to the analytical laboratory for analysis, and tolerability for each of the dose levels was summarized. […] During Part 3, subjects received a single 3.8 mg patch (applied with a 0.52 J applicator) and also completed identical procedures to the previous dosing days. After completion of the seven dosing days, subjects were assessed one final time and dismissed from the study.
Twenty subjects were enrolled in the study, 10 males and 10 females. The subjects mean age was 29 years±3.5 years with a mean BMI of 24.4±3.5.
PK parameters were summarized by treatment group using descriptive statistics (arithmetic means, standard deviations, coefficients of variation, sample size, minimum, maximum, and median).

For data set [3] the following is noted: cited from earlier work; for Bioavailability: oral tablet.
A short description of data set [4]: Solubility of zolmitriptan in various acids. It is filed as physicochemical. Particulars: 5 °C, thermodynamic from solid, 2-8° C. The text has this:
The suspension was then centrifuged.

A short description of the next data set: in vivo. The arrangement: species or system swine. Particulars: Yorkshire, pig, iv. The protocol:
The M207 patch was tested in swine. Intravenously administered zolmitriptan was used as a control. The inner thigh of the swine was used as the site of administration.
The low limit of quantitation (LLOQ) and high-limit of quantitation (HLOQ) were 0.1 and 1000 ng/mL, respectively. A four minute method utilizing high performance liquid chromatography-electrospray ionization-tandem mass spectrometry (HPLC-ESI-MS/MS) was developed for quantitation of zolmitriptan and its two major metabolites in HGP plasma. The instrumentation consist of Agilent® 1200 pumps, CTC PAL® Autosampler with cooling stack, AB Sciex® TurboV® ESI source, and API 4000® mass spectrometer.
All plasma samples and standards were first protein precipitated using 100% methanol and then diluted with 30% solution of acetonitrile at 1:2 ratio (Plasma: 30% ACN), 20 μL of this solution was injected into autosample. The autosample was equipped with a 100 μL syringe and a 100 μL loop. […]
The HPLC method used was a reversed phase gradient method (0.0 min, 10% B; 0.5 min, 10% B; 1.0 min, 40% B; 1.7 min, 40% B; 2.1 min, 10% B; 4.0 min, 10% B). […] During the mass spectrometer acquisition, eleven MRM transitions were monitored. […] The peak areas under each corresponding MRM transitions were summed and compared to that of spiked standard plasma samples to calculated concentration for each sample. […]

The mark [5] stands for this setting: both, human, in vivo, AUC0-2 hr (SD).
[6] abbreviates: both, human, in vivo, AUC0-last (SD).
[7] abbreviates: both, human, in vivo, AUC2 hrs, Mean.
[8] abbreviates: both, human, in vivo, AUCinf, Mean.
Setting [9] is: both, human, in vivo, Cmax (SD).
Where [10] appears, read: both, human, in vivo, Cmax, Mean.
Where [11] appears, read: both, human, in vivo, Tmax Med (Range).
Setting [12] is: both, human, in vivo, t1/2, Mean.
Where [13] appears, read: plasma N-desmethyl zolmitriptan metabolite.
Where [14] appears, read: plasma N-desmethyl zolmitriptan metabolite, in ng·h/mL.

Values after ≈ are worked out from the molar mass of the structure shown. Read-outs that look alike come from different tables or passages of the source.

T2 sequence (P28222 whole entry): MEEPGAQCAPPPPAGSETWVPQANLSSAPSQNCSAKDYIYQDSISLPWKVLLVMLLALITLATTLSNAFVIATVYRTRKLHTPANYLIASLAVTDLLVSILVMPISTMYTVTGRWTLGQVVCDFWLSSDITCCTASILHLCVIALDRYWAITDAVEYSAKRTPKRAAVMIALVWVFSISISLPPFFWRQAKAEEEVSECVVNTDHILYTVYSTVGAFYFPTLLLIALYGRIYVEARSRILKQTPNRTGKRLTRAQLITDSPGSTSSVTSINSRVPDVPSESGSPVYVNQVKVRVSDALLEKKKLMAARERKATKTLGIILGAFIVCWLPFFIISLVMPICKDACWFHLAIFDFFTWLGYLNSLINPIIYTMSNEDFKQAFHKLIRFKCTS
T1 sequence (P28221 whole entry): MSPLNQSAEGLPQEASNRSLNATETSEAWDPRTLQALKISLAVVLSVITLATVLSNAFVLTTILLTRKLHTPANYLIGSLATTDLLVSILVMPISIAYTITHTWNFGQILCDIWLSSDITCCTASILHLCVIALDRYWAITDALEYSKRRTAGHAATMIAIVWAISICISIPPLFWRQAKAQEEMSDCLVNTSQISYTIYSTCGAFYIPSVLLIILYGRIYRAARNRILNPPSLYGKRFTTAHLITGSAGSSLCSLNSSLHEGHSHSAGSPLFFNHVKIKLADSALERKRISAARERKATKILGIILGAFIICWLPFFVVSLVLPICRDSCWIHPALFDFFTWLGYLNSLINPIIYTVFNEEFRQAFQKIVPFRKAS

The Kd is the constant that tells how readily two partners part at equilibrium. For orientation: koff means the first-order rate constant of dissociation. What is called kon is the second-order rate constant of association. Take `CNCCc1c[nH]c2ccc(C[C@H]3COC(=O)N3)cc12` [N-desmethyl zolmitriptan]: in data set [1], the Kd is 0.43 nM, the koff came out at 0.0009 s⁻¹ and the kon amounted to 2.1e+06 M⁻¹ s⁻¹. In data set [2], the Kd came to 0.92 nM, the off-rate (koff) came out at 0.000833 s⁻¹ and the kon came to 900000 M⁻¹ s⁻¹. The “5HT1B/1D potency relative to the parent” value in the data set on 5HT1B/1D was 2 to 6 times.
In general, AUC(0-t) refers to exposure summed from dosing to a finite time, without extrapolation to infinity. Read a high AUC(0-t) as high exposure. What is called AUC(0-inf) is the area under the concentration-time curve extrapolated to infinity. A low value points to less exposure. As a reminder, the Cmax is the peak of the concentration-time curve. Broadly, the Tmax is the time from dosing to the highest level. The half-life is how long it takes for the measured level to halve. In the case of `CNS(=O)(=O)Cc1ccc2[nH]cc(CCN(C)C)c2c1` [Sumatriptan, sumatriptan], in the data set with migraine (among those who achieved headache resolution, 6 mg, different trial), the 24-hour recurrence rate is given as 38%. Also, the AUC(0-t) in “clinical” (setting [5]) turned out to be 70.9 ng·h/mL; in the data set “clinical” (setting [6]), 101 ng·h/mL; in “clinical” (setting [7]), 70.9 ng·h/mL. Also, the AUC(0-inf) in the data set “clinical” (setting [8]) was determined as 105 ng·h/mL. The Cmax in “clinical” (setting [9]) and in “clinical” (setting [10]) was 88.8 ng/mL each time. The Tmax in the data set “clinical” (setting [11]) was 0.167 h; in the data set “clinical” (both, human, in vivo, sc, tmax Median (Range)), 0.167 h; in data set [3] (conventional oral tablet) it was “about 2 hours”. Also, the half-life was 1.14 h in “clinical” (both, human, in vivo, sc, t1/2 Mean (SD)) and 1.14 h in “clinical” (setting [12]). Moreover, the Bioavailability result in data set [3] is reported as “about 15%”.
In the data set “clinical” (both, human, in vivo), `CN(C)CCc1c[nH]c2ccc(C[C@H]3COC(=O)N3)cc12` [Zolmitriptan 2.5 mg Oral Tablet, zolmitriptan] showed an AUC0-last / Dose of 8.6 ng·h/mL/mg. Moreover, the “Time to peak plasma concentration of the N-desmethyl metabolite” value in “clinical” (both, human, in vivo) turned out to be 2.7 h. Further, in “clinical” (both, human, in vivo), the “Tmax of N-desmethyl metabolite” value came to 2.71 h. The “Tmax, Mean” value in the data set “clinical” (both, human, in vivo) was 1.79 h. Further, the AUC(0-t) stood at 4.7 ng·h/mL in the data set “clinical” (setting [5]); 22.2 ng·h/mL in the data set “clinical” (both, human, in vivo, AUC0-last); 22.2 ng·h/mL in the data set “clinical” (setting [6]); 4.72 ng·h/mL in the data set “clinical” (setting [7]); 4.92 ng·h/mL in the data set “clinical” (both, human, in vivo, AUC2 hrs, Median); 22.2 ng·h/mL in “clinical” (both, human, in vivo, AUCt, Mean). Further, in the data set “clinical” (both, human, in vivo, AUCt, Median), the area under the curve AUC(0-t) was found to be 22.6 ng·h/mL. For the same compound, the AUC(0-inf) is 27.2 ng·h/mL in “clinical” (setting [8]) and 27.1 ng·h/mL in “clinical” (both, human, in vivo, AUCinf, Median). In addition, the Cmax in “clinical” (both, human, in vivo, Cmax) is 3.8 ng/mL; in the data set “clinical” (setting [9]) it was 3.8 ng/mL; in the data set “clinical” (setting [10]), 3.77 ± 1.51 ng/mL; in “clinical” (both, human, in vivo, Cmax, Median) it was 3.7 ng/mL. Further, the Tmax was 1.8 ± 1.27 h in the data set “clinical” (both, human, in vivo, Tmax); 1 h in the data set “clinical” (both, human, in vivo, Tmax (range), median); 1 h in “clinical” (setting [11]); 1.79 h in the data set “clinical” (both, human, in vivo, Tmax, Mean); 1 h in the data set “clinical” (both, human, in vivo, Tmax, Median). In addition, the half-life in “clinical” (setting [12]) is 3.27 ± 0.8 h; in “clinical” (both, human, in vivo, t1/2, Median) it was 3.28 h. For the same compound, in data set [3] (conventional release tablets), the “Reduction of Cmax and AUC by administration with food” value is reported as 13-16%. Also, the Bioavailability in data set [3] is 41 and 48%.
In general, solubility refers to how much of the substance goes into solution per volume. For the compound `CN(C)CCc1c[nH]c2ccc(C[C@H]3COC(=O)N3)cc12` [Zolmitriptan, zolmitriptan], the solubility in data set [4] (aqueous buffer, 0.1 M citric acid) was 88.6 mg/mL (≈ 308 mM); in data set [4] (aqueous buffer, 0.1 M maleic acid), 50.5 mg/mL (≈ 176 mM); in data set [4] (aqueous buffer, 0.1 M succinic acid), 59.1 mg/mL (≈ 206 mM); in data set [4] (aqueous buffer, 0.1 M tartaric acid), 63.3 mg/mL (≈ 220 mM); in data set [4] (simulated gastric fluid, 0.1 M HCl), 33.3 mg/mL (≈ 116 mM). Besides, the Kd amounted to 0.34 nM in data set [1] and 1.47 nM in data set [2]. Moreover, the koff in data set [1] (read-out: koff (converted)) is 0.001 s⁻¹; in data set [2] (read-out: koff (converted)) it was 0.00127 s⁻¹. The values for the kon in data set [1] (read-out: kon (converted)) and in data set [2] (read-out: kon (converted)) were 2.9e+06 M⁻¹ s⁻¹ and 883000 M⁻¹ s⁻¹, respectively. Moreover, the “Pain freedom at 2 hours” value in the data set on migraine is 29%. Further, the “Pain relief at 2 hours” value with migraine is on record as 62%. The Tmax in “in vivo” was 1 min; in “clinical” (both, human, in vivo, 2.5 mg, tmax Median (Range)), 1 h; in the data set “clinical” (both, human, in vivo, tmax Median (Range)), 0.3 h; in data set [3] (nasal administration) it was “about 1.5 hours”. This compound registered an AUC(0-t) in the data set “clinical” (both, human, in vivo, 2.5 mg, AUC2 hrs Mean (SD)) of 4.72 ng·h/mL. The same compound came in with an AUC(0-inf) in “clinical” (both, human, in vivo, 2.5 mg, AUCinf Mean (SD)) of 27.2 ng·h/mL. Also, the Cmax in “clinical” (both, human, in vivo, 2.5 mg, Cmax Mean (SD)) worked out at 3.77 ng/mL. For the same compound, the half-life in “clinical” (both, human, in vivo, 2.5 mg, t1/2 Mean (SD)) was 3.27 h; in “clinical” (both, human, in vivo, t1/2 Mean (SD)), 1.53 h.
Regarding `CNS(=O)(=O)CCc1ccc2[nH]cc(C3CCN(C)CC3)c2c1` [naratriptan], in the data set with migraine, the “Pain freedom at 2 hours” value was 18% and the “Pain relief at 2 hours” value was 49%.
As to `CN(C)CCc1c[nH]c2ccc(C[C@H]3COC(=O)N3)cc12` [nasal treatment of zolmitriptan, zolmitriptan], in the data set with migraine (nasal treatment), the “Patients pain free at 1 hour” value is given as “about 10%”.
`CN(C)CCc1c[nH]c2ccc(C[C@H]3COC(=O)N3)cc12` [orally disintegrating tablets, zolmitriptan]: the Tmax entry in data set [3] (orally disintegrating tablets) is “about 3 hours”.
“zolmitriptan [Zolmitriptan 2.5 mg Oral Tablet]”: in the data set “clinical” (setting [13]), the AUC2 hrs, Mean was 2.31 ng·h/mL; the AUC2 hrs, Median came out at 2.24 ng·h/mL; the Cmax, Mean came to 2.08 ng/mL; the Cmax, Median was 2.04 ng/mL. For the same compound, in “clinical” (setting [14]), the “AUCinf, Mean” value is 14.55; the “AUCinf, Median” value stood at 14.31; the “AUCt, Mean” value worked out at 13.71; the “AUCt, Median” value is reported as 13.76.

Values taken from patent US11660265B2, “Method of rapidly achieving therapeutic concentrations of triptans for treatment of migraines and cluster headaches” (ZP Opco, Inc., priority 2018, dated 2023).
